How the values were obtained:
Sprague-Dawley rats [1] = test: Inhibition of phosphate and sodium absorption in intestinal tract of rats after single administration (urinary phosphorus, urinary sodium, fecal form); format: in vivo, rat; settings: normal rats
Description: The compound represented by formula (I) was evaluated by measuring the concentrations of urinary phosphorus and urinary sodium, as well as fecal form.
(§1) Six-week-old Sprague-Dawley rats were purchased from Beijing Vital River Laboratory Animal Technology Co., Ltd. Two rats in each cage were placed in the SPF-grade animal room, and the rats were acclimatized for about one week. Throughout the study, the animals were given ad libitum access to feed and water, and the light cycle was 12 h of light and 12 h of darkness. Animal groups: vehicle group, n=5; tenapanor 0.3 mg/kg group, n=5; compound represented by formula (I) 0.03 mg/kg group, n=5; compound represented by formula (I) 0.1 mg/kg group, n=5; compound represented by formula (I) 0.3 mg/kg group, n=5; and compound represented by formula (I) 1.0 mg/kg group, n=5.
On the day of the experiment, the test compound or vehicle (0.5% Tween 80+99.5% distilled water) was administered intragastrically to the animals after 8 h of fasting. Then, the animals were transferred into metabolism cages for single-cage feeding, and the feed was restored. Sixteen hours after administration, urine samples were collected, food consumption was recorded, and fecal form in the collection funnel was evaluated by two independent observations. Fecal form scoring criteria: 1. normal pellets; 2. slightly soft feces (pellets adhered to the side wall of the collector due to moisture); 3. soft feces (loss of normal shape of the pellets); 4. loose and amorphous (complete loss of shape, accompanied by a blot pattern); and 5. diarrhea (watery feces). Fecal form score (FFS) in rats was determined by averaging two independent observation scores for all rats in the same group (n=5); and the mean value for the vehicle group was 1.
The urine was centrifuged at 4° C. at 3220 g for 5 min, and the urinary phosphorus concentration (phosphomolybdic acid ultraviolet endpoint colorimetric method) and urinary sodium concentration (ion selective electrode method) were measured.
(§2) The results were expressed as mean±standard error (Means±SEM). The urinary phosphorus excretion amount (or urinary sodium excretion amount) in the rats was normalized and corrected against the respective dietary phosphorus (or sodium) intake. The formula was as follows: normalized correction value of urinary phosphorus excretion amount (expressed as nP)=urinary phosphorus excretion amount+dietary phosphorus intake; normalized correction value of urinary sodium excretion amount (expressed as nNa)=urinary sodium excretion amount+dietary sodium intake; one-way analysis of variance was adopted; and fecal form score was verified by the non-parametric test. *, p<0.05; **, p<0.01; ***, p<0.001; ****, p<0.0001.

Sprague-Dawley rats [2] = test: Effect of multiple administrations on serum phosphorus concentration in rats (serum phosphorus, 24-h urinary phosphorus and sodium, fecal form); format: in vivo, rat; settings: for 24-h nP, course: after 15 days; for serum phosphorus concentration: intragastric twice a day
Description: as §1, with “The compound represented by formula (I) was evaluated by measuring the serum phosphorus concentration, concentrations of urinary phosphorus and urinary sodium, and fecal form in rats. Six-week-old” for “Six-week-old”, “Tenapanor 0.05 mg/kg,” for “tenapanor 0.3 mg/kg group,”, “0.01 mg/kg,” for “0.03 mg/kg group,”, “0.05 mg/kg,” for “0.1 mg/kg group,”, “0.5 mg/kg,” for “0.3 mg/kg group,”, “mg/kg,” for “mg/kg group,”
After the start of the experiment, the feeding rhythm of the rats was adjusted to diurnal feeding in a manner of overnight fasting for 16 h and restoring feed for 8 h during the day. After the start of administration, the test compound or vehicle (0.5% Tween 80+99.5% distilled water) was administered intragastrically twice a day during the feeding period, with an interval of 4 h, for 14 consecutive days. The body weight of animals and food consumption were measured daily. The serum phosphorus concentration (including baseline values before the administration), 24-hour urinary phosphorus excretion amount, and 24-hour urinary sodium excretion amount were measured 1-2 times a week, and fecal form in the collection funnel was scored (fecal form was assessed by two independent observations). Fecal form scoring criteria: 1. normal pellets; 2. slightly soft feces (pellets adhered to the side wall of the collector due to moisture); 3. soft feces (loss of normal shape of the pellets); 4. loose and amorphous (complete loss of shape, accompanied by a blot pattern); and 5. diarrhea (watery feces). Fecal form score (FFS) in rats was determined by averaging two independent observation scores for all rats in the same group (n=5); and the mean value for the vehicle group was 1.
After being left to stand at room temperature for 2 h, the blood was centrifuged at 4° C. at 4500 g for 10 min; the urine was centrifuged at 4° C. at 3220 g for 5 min; and the serum phosphorus concentration and urinary phosphorus concentration (phosphomolybdic acid ultraviolet endpoint colorimetric method), as well as urinary sodium concentration (indirect ion electrode method) were measured.
as §2, with “error (Means±SEM), n=5 animals/group.” for “error (Means±SEM).”, “intake; two-way” for “intake; one-way”, “p<0.05; **” for “p<0.05; **,”, “p<0.01; ***” for “p<0.01; ***,”

SMILES: CN1Cc2c(Cl)cc(Cl)cc2[C@H](c2ccc3cn(CCOCCOCCNC(=O)NCCCCNC(=O)NCCOCCOCCn4cc5ccc([C@@H]6CN(C)Cc7c(Cl)cc(Cl)cc76)cc5n4)nc3c2)C1 [compound represented by formula (I)]
- urinary phosphorus excretion amount (nP) (Sprague-Dawley rats [1]; single intragastric administration, 0.03, 0.1, 0.3, 1.0 mg/kg, urine 16 h after administration, dose dependence): dose-effect relationship
- water content in the feces (fecal form score) (Sprague-Dawley rats [1]; single intragastric administration, 0.03-1.0 mg/kg, 16 h): tendency to increase with the increase in the dose
- urinary phosphorus excretion amount (nP) (Sprague-Dawley rats [1]; single intragastric administration, doses of 0.3 mg/kg and 1.0 mg/kg, urine 16 h after administration): significantly reduce
- urinary phosphorus excretion amount (nP), comparison with Tenapanor (Sprague-Dawley rats [1]; single intragastric administration, same dose 0.3 mg/kg of both): better than Tenapanor
- urinary sodium excretion amount (nNa) (Sprague-Dawley rats [1]; single intragastric administration, urine 16 h after administration): significantly reduce
- 24-h nP (Sprague-Dawley rats [2]; after 1 day of treatment, 1.0 mg/kg, vs vehicle): significantly reduced
- 24-h nP (urinary phosphorus excretion amount normalized to dietary phosphorus intake) (Sprague-Dawley rats [2]; after 1 day of treatment, 0.01, 0.05, 0.5 and 1.0 mg/kg, vs vehicle): decreasing trend
- 24-h nNa (urinary sodium excretion amount normalized to dietary sodium intake) (Sprague-Dawley rats [2]; after 1 day of treatment, 0.01, 0.05, 0.5 and 1.0 mg/kg, vs vehicle control): significantly reduced
- 24-h nP, dose dependence (Sprague-Dawley rats [2]; after 1 day of treatment, 0.01-1.0 mg/kg): The higher the dose, the lower the nP
- fecal form score (Sprague-Dawley rats [2]; after 1 day of treatment, 0.05, 0.5 and 1.0 mg/kg, vs vehicle control): increased significantly
- 24-h nNa, course (Sprague-Dawley rats [2]; after 10 days of treatment, 0.01 mg/kg and 0.05 mg/kg): rising trend
- 24-h nP (Sprague-Dawley rats [2]; after 10 days of treatment, 0.01, 0.05, 0.5 and 1.0 mg/kg, vs vehicle): significantly reduced
- 24-h nP, course (Sprague-Dawley rats [2]): tended to be stable
- 24-h nP, course (Sprague-Dawley rats [2]; low-dose group 0.01 mg/kg): rising trend
- loose feces, severity (Sprague-Dawley rats [2]; high-dose groups 0.5 mg/kg and 1.0 mg/kg): more severe loose feces
- frequency of loose feces observed (Sprague-Dawley rats [2]; high-dose groups 0.5 mg/kg and 1.0 mg/kg, as the administration continued): decreased
- serum phosphorus concentration (Sprague-Dawley rats [2]; after 4 days of treatment, 0.5 mg/kg or 1.0 mg/kg, vs vehicle control): significantly reduced
- serum phosphorus concentration (Sprague-Dawley rats [2]; after 10 days of treatment, 0.01, 0.05, 0.5 and 1.0 mg/kg, vs vehicle control): significantly reduced
- loose feces, occurrence (Sprague-Dawley rats [2]; low dose 0.01 mg/kg): No rats had loose feces
- serum phosphorus concentration, course (Sprague-Dawley rats [2]; twice a day, after 10 days, groups other than the highest dose 1.0 mg/kg): tended to be stable

— patent US20250368618A1, “BENZOHETEROCYCLIC SUBSTITUTED TETRAHYDROISOQUINOLINE COMPOUND SALT FORM AND PREPARATION METHOD THEREFOR” (SHANGHAI JEYOU PHARMACEUTICAL CO., LTD., priority 2022, published 2025)
